Experimental findings from ChEMBL document CHEMBL1944514, “Fluorescence detection of single nucleotide polymorphisms using nucleic acid probe containing tricyclic base-linked acyclonucleoside” (Bioorg Med Chem Lett, 2012) are described below.

What all share (assay type): nucleic-acid assay
In experiment [1] the test system is Nucleic Acid. Put plainly: Binding affinity to 3'-r(CUUCCAGUUGCAUAGAGA)-5' RNA assessed as change in melting temperature by spectrophotometry.
In experiment [2] the test system is Nucleic Acid. As to the kind of experiment: Binding affinity to 3'-r(CUUCCAGUUCCAUAGAGA)-5' RNA assessed as fluorescence quenching by spectrophotometry.
The test system of experiment [3] is Nucleic Acid. Put plainly: Binding affinity to 3'-r(CUUCCAGUUUCAUAGAGA)-5' RNA assessed as change in melting temperature by spectrophotometry.
Experiment [4] has as its system Nucleic Acid. As to the kind of experiment: Binding affinity to 3'-r(CUUCCAGUUGCAUAGAGA)-5' RNA assessed as fluorescence quenching by spectrophotometry.
Experiment [5] deals with Nucleic Acid. As to the kind of experiment: Binding affinity to 3'-r(CUUCCAGUUACAUAGAGA)-5' RNA assessed as fluorescence quenching by spectrophotometry.
Experiment [6] relates to Nucleic Acid. Put plainly: Binding affinity to 3'-r(CUUCCAGUUACAUAGAGA)-5' RNA assessed as change in melting temperature by spectrophotometry.
Experiment [7] relates to Nucleic Acid. Put plainly: Binding affinity to 3'-r(CUUCCAGUUCCAUAGAGA)-5' RNA assessed as change in melting temperature by spectrophotometry.
Experiment [8] relates to Nucleic Acid. Put plainly: Binding affinity to 3'-r(CUUCCAGUUUCAUAGAGA)-5' RNA assessed as fluorescence quenching by spectrophotometry.

Structures are written as SMILES. Calls of active or inactive are those of the source. No cut-off for these calls is given here.

The term ΔTm denotes the shift of the melting midpoint relative to a reference. For the molecule `Cc1cn([C@H]2C[C@H](OP(=O)(O)OC[C@H]3O[C@@H](n4ccc(N)nc4=O)C[C@@H]3OP(=O)(O)OC[C@H]3O[C@@H](n4cnc5c(N)ncnc54)C[C@@H]3OP(=O)(O)OC[C@H]3O[C@@H](n4cnc5c(N)ncnc54)C[C@@H]3OP(=O)(O)OC[C@H](Cn3cnc4cc5c(N)nc(N)nc5nc43)OP(=O)(O)OC[C@H]3O[C@@H](n4ccc(N)nc4=O)C[C@@H]3OP(=O)(O)OC[C@H]3O[C@@H](n4cnc5c(=O)[nH]c(N)nc54)C[C@@H]3OP(=O)(O)CC[C@H]3O[C@@H](n4cc(C)c(=O)[nH]c4=O)C[C@@H]3OP(=O)(O)OC[C@H]3O[C@@H](n4cnc5c(N)ncnc54)C[C@@H]3OP(=O)(O)OC[C@H]3O[C@@H](n4cc(C)c(=O)[nH]c4=O)C[C@@H]3OP(=O)(O)OC[C@H]3O[C@@H](n4ccc(N)nc4=O)C[C@@H]3OP(=O)(O)OC[C@H]3O[C@@H](n4cc(C)c(=O)[nH]c4=O)C[C@@H]3OP(=O)(O)OC[C@H]3O[C@@H](n4ccc(N)nc4=O)C[C@@H]3OP(=O)(O)OC[C@H]3O[C@@H](n4cc(C)c(=O)[nH]c4=O)C[C@@H]3O)[C@@H](COP(=O)(O)O[C@H]3C[C@H](n4cnc5c(=O)[nH]c(N)nc54)O[C@@H]3COP(=O)(O)O[C@H]3C[C@H](n4cnc5c(=O)[nH]c(N)nc54)O[C@@H]3COP(=O)(O)O[C@H]3C[C@H](n4cnc5c(N)ncnc54)O[C@@H]3COP(=O)(O)O[C@H]3C[C@H](n4cnc5c(N)ncnc54)O[C@@H]3COP(=O)(O)O[C@H]3C[C@H](n4cnc5c(=O)[nH]c(N)nc54)O[C@@H]3CO)O2)c(=O)nc1N`, the outcome in experiment [1] and in experiment [4] was inactive. The result in experiment [2], in experiment [5] and in experiment [8] was Active. Besides, the ΔTm in experiment [3] was -5.4 °C; in experiment [6], -6 °C; in experiment [7] it was -6.5 °C.

On to `Cc1cn([C@H]2C[C@H](OP(=O)(O)OC[C@H]3O[C@@H](n4ccc(N)nc4=O)C[C@@H]3OP(=O)(O)OC[C@H]3O[C@@H](n4cnc5c(N)ncnc54)C[C@@H]3OP(=O)(O)OC[C@H]3O[C@@H](n4cnc5c(N)ncnc54)C[C@@H]3OP(=O)(O)OC[C@H](Cn3cnc4cc5c(N)nc(N)nc5nc43)OP(=O)(O)OC[C@H]3O[C@@H](n4cnc5c(N)ncnc54)C[C@@H]3OP(=O)(O)OC[C@H]3O[C@@H](n4cnc5c(=O)[nH]c(N)nc54)C[C@@H]3OP(=O)(O)CC[C@H]3O[C@@H](n4cc(C)c(=O)[nH]c4=O)C[C@@H]3OP(=O)(O)OC[C@H]3O[C@@H](n4cnc5c(N)ncnc54)C[C@@H]3OP(=O)(O)OC[C@H]3O[C@@H](n4cc(C)c(=O)[nH]c4=O)C[C@@H]3OP(=O)(O)OC[C@H]3O[C@@H](n4ccc(N)nc4=O)C[C@@H]3OP(=O)(O)OC[C@H]3O[C@@H](n4cc(C)c(=O)[nH]c4=O)C[C@@H]3OP(=O)(O)OC[C@H]3O[C@@H](n4ccc(N)nc4=O)C[C@@H]3OP(=O)(O)OC[C@H]3O[C@@H](n4cc(C)c(=O)[nH]c4=O)C[C@@H]3O)[C@@H](COP(=O)(O)O[C@H]3C[C@H](n4cnc5c(=O)[nH]c(N)nc54)O[C@@H]3COP(=O)(O)O[C@H]3C[C@H](n4cnc5c(=O)[nH]c(N)nc54)O[C@@H]3COP(=O)(O)O[C@H]3C[C@H](n4cnc5c(N)ncnc54)O[C@@H]3COP(=O)(O)O[C@H]3C[C@H](n4cnc5c(N)ncnc54)O[C@@H]3COP(=O)(O)O[C@H]3C[C@H](n4cnc5c(=O)[nH]c(N)nc54)O[C@@H]3CO)O2)c(=O)nc1N`, for which the values for the ΔTm in experiment [1], in experiment [6] and in experiment [7] were -2.9 °C, -3.5 °C and -3.4 °C, respectively. The outcome in experiment [2], in experiment [4] and in experiment [5] was Active. Moreover, the outcome in experiment [3] and in experiment [8] was inactive.

Consider `Cc1cn([C@H]2C[C@H](OP(=O)(O)OC[C@H]3O[C@@H](n4ccc(N)nc4=O)C[C@@H]3OP(=O)(O)OC[C@H]3O[C@@H](n4cnc5c(N)ncnc54)C[C@@H]3OP(=O)(O)OC[C@H]3O[C@@H](n4cnc5c(N)ncnc54)C[C@@H]3OP(=O)(O)OC[C@H]3O[C@@H](n4cnc5c(N)ncnc54)C[C@@H]3OP(=O)(O)OC[C@H](Cn3cnc4cc5c(N)nc(N)nc5nc43)OP(=O)(O)OC[C@H]3O[C@@H](n4cnc5c(=O)[nH]c(N)nc54)C[C@@H]3OP(=O)(O)CC[C@H]3O[C@@H](n4cc(C)c(=O)[nH]c4=O)C[C@@H]3OP(=O)(O)OC[C@H]3O[C@@H](n4cnc5c(N)ncnc54)C[C@@H]3OP(=O)(O)OC[C@H]3O[C@@H](n4cc(C)c(=O)[nH]c4=O)C[C@@H]3OP(=O)(O)OC[C@H]3O[C@@H](n4ccc(N)nc4=O)C[C@@H]3OP(=O)(O)OC[C@H]3O[C@@H](n4cc(C)c(=O)[nH]c4=O)C[C@@H]3OP(=O)(O)OC[C@H]3O[C@@H](n4ccc(N)nc4=O)C[C@@H]3OP(=O)(O)OC[C@H]3O[C@@H](n4cc(C)c(=O)[nH]c4=O)C[C@@H]3O)[C@@H](COP(=O)(O)O[C@H]3C[C@H](n4cnc5c(=O)[nH]c(N)nc54)O[C@@H]3COP(=O)(O)O[C@H]3C[C@H](n4cnc5c(=O)[nH]c(N)nc54)O[C@@H]3COP(=O)(O)O[C@H]3C[C@H](n4cnc5c(N)ncnc54)O[C@@H]3COP(=O)(O)O[C@H]3C[C@H](n4cnc5c(N)ncnc54)O[C@@H]3COP(=O)(O)O[C@H]3C[C@H](n4cnc5c(=O)[nH]c(N)nc54)O[C@@H]3CO)O2)c(=O)nc1N`, for which the ΔTm in experiment [1] is -2.1 °C; in experiment [6], -2.3 °C; in experiment [7], -2 °C. Besides, the result in experiment [2], in experiment [4] and in experiment [5] was Active. The result in experiment [3] and in experiment [8] was inactive.

`Cc1cn([C@H]2C[C@H](OP(=O)(O)OC[C@H]3O[C@@H](n4ccc(N)nc4=O)C[C@@H]3OP(=O)(O)OC[C@H]3O[C@@H](n4cnc5c(N)ncnc54)C[C@@H]3OP(=O)(O)OC[C@H]3O[C@@H](n4cnc5c(N)ncnc54)C[C@@H]3OP(=O)(O)OC[C@H]3O[C@@H](n4cnc5c(=O)[nH]c(N)nc54)C[C@@H]3OP(=O)(O)OC[C@H](Cn3cnc4cc5c(N)ncnc5nc43)OP(=O)(O)OC[C@H]3O[C@@H](n4cnc5c(=O)[nH]c(N)nc54)C[C@@H]3OP(=O)(O)CC[C@H]3O[C@@H](n4cc(C)c(=O)[nH]c4=O)C[C@@H]3OP(=O)(O)OC[C@H]3O[C@@H](n4cnc5c(N)ncnc54)C[C@@H]3OP(=O)(O)OC[C@H]3O[C@@H](n4cc(C)c(=O)[nH]c4=O)C[C@@H]3OP(=O)(O)OC[C@H]3O[C@@H](n4ccc(N)nc4=O)C[C@@H]3OP(=O)(O)OC[C@H]3O[C@@H](n4cc(C)c(=O)[nH]c4=O)C[C@@H]3OP(=O)(O)OC[C@H]3O[C@@H](n4ccc(N)nc4=O)C[C@@H]3OP(=O)(O)OC[C@H]3O[C@@H](n4cc(C)c(=O)[nH]c4=O)C[C@@H]3O)[C@@H](COP(=O)(O)O[C@H]3C[C@H](n4cnc5c(=O)[nH]c(N)nc54)O[C@@H]3COP(=O)(O)O[C@H]3C[C@H](n4cnc5c(=O)[nH]c(N)nc54)O[C@@H]3COP(=O)(O)O[C@H]3C[C@H](n4cnc5c(N)ncnc54)O[C@@H]3COP(=O)(O)O[C@H]3C[C@H](n4cnc5c(N)ncnc54)O[C@@H]3COP(=O)(O)O[C@H]3C[C@H](n4cnc5c(=O)[nH]c(N)nc54)O[C@@H]3CO)O2)c(=O)nc1N`: the result in experiment [2] was inactive. For the same molecule, the outcome in experiment [4], in experiment [5] and in experiment [8] was Active.

For `Cc1cn([C@H]2C[C@H](OP(=O)(O)OC[C@H]3O[C@@H](n4ccc(N)nc4=O)C[C@@H]3OP(=O)(O)OC[C@H]3O[C@@H](n4cnc5c(N)ncnc54)C[C@@H]3OP(=O)(O)OC[C@H]3O[C@@H](n4cnc5c(N)ncnc54)C[C@@H]3OP(=O)(O)OC[C@H]3O[C@@H](n4ccc(N)nc4=O)C[C@@H]3OP(=O)(O)OC[C@H](Cn3cnc4cc5c(N)ncnc5nc43)OP(=O)(O)OC[C@H]3O[C@@H](n4cnc5c(=O)[nH]c(N)nc54)C[C@@H]3OP(=O)(O)CC[C@H]3O[C@@H](n4cc(C)c(=O)[nH]c4=O)C[C@@H]3OP(=O)(O)OC[C@H]3O[C@@H](n4cnc5c(N)ncnc54)C[C@@H]3OP(=O)(O)OC[C@H]3O[C@@H](n4cc(C)c(=O)[nH]c4=O)C[C@@H]3OP(=O)(O)OC[C@H]3O[C@@H](n4ccc(N)nc4=O)C[C@@H]3OP(=O)(O)OC[C@H]3O[C@@H](n4cc(C)c(=O)[nH]c4=O)C[C@@H]3OP(=O)(O)OC[C@H]3O[C@@H](n4ccc(N)nc4=O)C[C@@H]3OP(=O)(O)OC[C@H]3O[C@@H](n4cc(C)c(=O)[nH]c4=O)C[C@@H]3O)[C@@H](COP(=O)(O)O[C@H]3C[C@H](n4cnc5c(=O)[nH]c(N)nc54)O[C@@H]3COP(=O)(O)O[C@H]3C[C@H](n4cnc5c(=O)[nH]c(N)nc54)O[C@@H]3COP(=O)(O)O[C@H]3C[C@H](n4cnc5c(N)ncnc54)O[C@@H]3COP(=O)(O)O[C@H]3C[C@H](n4cnc5c(N)ncnc54)O[C@@H]3COP(=O)(O)O[C@H]3C[C@H](n4cnc5c(=O)[nH]c(N)nc54)O[C@@H]3CO)O2)c(=O)nc1N`, the outcome in experiment [2], in experiment [4], in experiment [5] and in experiment [8] was Active.
